Experimental findings from patent publication US20260265244A1, “HETEROCYCLIC COMPOUNDS AS STING ANTAGONISTS” (Boehringer Ingelheim International GmbH, priority 2022, published 2026) are described below.

One assay deals with T1, human STING WT (R232) (Homo sapiens, UniProt Q86WV6, H232R).
T1 construct: purchased Cisbio 64BDSTGPEG
Put plainly: Human STING HTRF binding assay (competitive, Cisbio 64BDSTGPEG). A digest of the protocol: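 Competitive HTRF: 6His-tagged human STING WT R232 binding domain (residues 138-379) with anti-6His Cryptate antibody and d2-labeled STING ligand, 180 min at room temperature, 1% DMSO, 8 concentrations from 10 μM or 1 μM top in ~1:5 steps. HTRF ratios were calibrated to a cGAMP standard curve and IC50 obtained by 4-parameter logistic fit.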

Assay [1] concerns STING inhibition in human whole blood (IFNα2α production). Put plainly: Human whole blood assay (HWBA): cGAMP-stimulated IFNα2α production. The class given is cell-based. A digest of the protocol: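 Na-citrate human whole blood from ≥3 healthy donors, preincubated 60 min at room temperature with compound (8 concentrations, top 10 μM, ~1:5 steps, 0.1% DMSO), then stimulated with cGAMP and incubated 22 h at 37 °C. Plasma IFNα2α measured by MSD immunoassay; % control versus stimulated/unstimulated wells, IC50 by 4-parameter logistic fit.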

Structures are written as SMILES. pIC50: −log10 of the molar value. Read-outs that look alike come from different tables or passages of the source.

T1 sequence (Q86WV6 138-379 H232R): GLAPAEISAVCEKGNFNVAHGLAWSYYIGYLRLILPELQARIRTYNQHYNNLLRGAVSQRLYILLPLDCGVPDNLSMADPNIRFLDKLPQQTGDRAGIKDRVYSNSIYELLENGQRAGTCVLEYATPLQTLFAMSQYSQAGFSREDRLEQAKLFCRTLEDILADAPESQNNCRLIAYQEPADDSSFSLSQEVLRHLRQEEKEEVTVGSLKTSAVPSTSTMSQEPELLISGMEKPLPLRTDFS

As for `Cc1c(C(C)C)c(-c2cccc3nn(C[C@H](O)c4ccccc4)cc23)nn1-c1cc2cn(C)nc2nc1C1(C)CC1` [Example 80, (1R)-2-(4-{5-methyl-1-[2-methyl-6-(1-methylcyclopropyl)-2H-pyrazolo[3,4-b]pyridin-5-yl]-4-(propan-2-yl)-1H-pyrazol-3-yl}-2H-indazol-2-yl)-1-phenylethan-1-ol], the figures for the pIC50 (on human STING WT (R232); in assay [1] (Homo sapiens)) were 7.76 and 6.24, respectively.
The like results for `COCCO[C@@H](Cn1cc2c(-c3nn(-c4cc5cn(C)nc5nc4C)c(C)c3C(C)C)cccc2n1)c1ccccc1` [Example 85, 4-(1-{2,6-dimethyl-2H-pyrazolo[3,4-b]pyridin-5-yl}-5-methyl-4-(propan-2-yl)-1H-pyrazol-3-yl)-2-[(2R)-2-(2-methoxyethoxy)-2-phenylethyl]-2H-indazole] were, in that order, 7.80 and 6.18.
In the case of `COC(C)c1nc2nn(C)cc2cc1-n1nc(-c2cccc3nn(C[C@H](O)c4ccccc4)cc23)c(C(C)C)c1C` (some centres unmarked) [Example 75], the pIC50 at human STING WT (R232) was 8.01; in assay [1], 6.35.
Regarding `Cc1c(C(C)C)c(-c2cccc3nn(C[C@H](O)c4ccccc4)cc23)nn1-c1cc2cn(C)nc2nc1C(C)(C)O` [Example 89, 2-[5-(3-{2-[(2R)-2-hydroxy-2-phenylethyl]-2H-indazol-4-yl}-5-methyl-4-(propan-2-yl)-1H-pyrazol-1-yl)-2-methyl-2H-pyrazolo[3,4-b]pyridin-6-yl]propan-2-ol], the negative-log IC50 (pIC50) was 7.76 at human STING WT (R232) and 6.00 in assay [1] (Homo sapiens).
On to `CCc1c(-c2cccc3nn(C[C@H](O)c4ccccc4)cc23)nn(-c2cc3cn(C)nc3nc2C)c1CC` [Example 93, (1R)-2-[4-(1-{2,6-dimethyl-2H-pyrazolo[3,4-b]pyridin-5-yl}-4,5-diethyl-1H-pyrazol-3-yl)-2H-indazol-2-yl]-1-phenylethan-1-ol], for which the negative-log IC50 (pIC50) was 7.76 at human STING WT (R232) and 5.62 in assay [1] (Homo sapiens).
Regarding `Cc1cc([C@@H](O)Cn2cc3c(-c4nn(-c5cc6cn(C)nc6nc5C)c(C)c4C(C)C)cccc3n2)ccn1` [Example 82, (1R)-2-[4-(1-{2,6-dimethyl-2H-pyrazolo[3,4-b]pyridin-5-yl}-5-methyl-4-(propan-2-yl)-1H-pyrazol-3-yl)-2H-indazol-2-yl]-1-(2-methylpyridin-4-yl)ethan-1-ol], the negative logarithm of the IC50 (pIC50) is 8.49 at human STING WT (R232) and 6.21 in assay [1] (Homo sapiens).
For `[2H][C@](O)(Cn1cc2c(-c3nn(-c4cc5cn(C)nc5nc4C)c(C)c3C(C)C)cccc2n1)c1ccccc1` [Example 3, (1R)-2-[4-(1-{2,6-dimethyl-2H-pyrazolo[3,4-b]pyridin-5-yl}-5-methyl-4-(propan-2-yl)-1H-pyrazol-3-yl)-2H-indazol-2-yl]-1-phenyl(1-^2H)ethan-1-ol], the values for the pIC50 (on human STING WT (R232); in assay [1] (Homo sapiens)) were 8.29 and 7.24, respectively.
Consider `Cc1nc2nn(C)cc2cc1-n1nc(-c2cccc3nn(CC(O)c4ccc(Br)cc4)cc23)c(C(C)C)c1C` (centres unmarked) [Example 88, 1-(4-Bromophenyl)-2-[4-(1-{2,6-dimethyl-2H-pyrazolo[3,4-b]pyridin-5-yl}-5-methyl-4-(propan-2-yl)-1H-pyrazol-3-yl)-2H-indazol-2-yl]ethan-1-ol], for which the pIC50 at human STING WT (R232) is 7.01; in assay [1] (Homo sapiens) it was 6.03.
In the case of `Cc1nc2nn(C)cc2cc1-n1nc(-c2cccc3nn(C[C@H](O)c4ccccc4)cc23)c(C(C)CO)c1C` (stereo partly drawn) [Example 95, 2-(1-{2,6-dimethyl-2H-pyrazolo[3,4-b]pyridin-5-yl}-3-{2-[(2R)-2-hydroxy-2-phenylethyl]-2H-indazol-4-yl}-5-methyl-1H-pyrazol-4-yl)propan-1-ol], the values for the negative-log IC50 (pIC50) (on human STING WT (R232); in assay [1] (Homo sapiens)) were 7.94 and 5.60, respectively.
With `Cn1cc2cc(-c3nc(-c4cccc5nn(C[C@H](O)c6ccc(OCC#N)cc6)cc45)c(C4CC4)n3C)c(C3CC3)nc2n1` [Example 90, 2-{4-[(1R)-2-[4-(5-cyclopropyl-2-{6-cyclopropyl-2-methyl-2H-pyrazolo[3,4-b]pyridin-5-yl}-1-methyl-1H-imidazol-4-yl)-2H-indazol-2-yl]-1-hydroxyethyl]phenoxy} acetonitrile], the results for the pIC50 (at human STING WT (R232); in assay [1] (Homo sapiens)) were 7.70 and 5.96, respectively.
With `CCCO[C@@H](Cn1cc2c(-c3nn(-c4cc5cn(C)nc5nc4C)c(C)c3C(C)C)cccc2n1)c1ccccc1` [Example 81, 4-(1-{2,6-dimethyl-2H-pyrazolo[3,4-b]pyridin-5-yl}-5-methyl-4-(propan-2-yl)-1H-pyrazol-3-yl)-2-[(2R)-2-phenyl-2-propoxyethyl]-2H-indazole], the negative-log IC50 (pIC50) was 7.51 at human STING WT (R232) and 6.21 in assay [1] (Homo sapiens).
Regarding `Cc1c(C(C)C)c(-c2cccc3nn(C[C@H](O)c4ccccc4)cc23)nn1-c1cc2cn(C)nc2nc1N(C)C` [Example 87, (1R)-2-(4-{1-[6-(dimethylamino)-2-methyl-2H-pyrazolo[3,4-b]pyridin-5-yl]-5-methyl-4-(propan-2-yl)-1H-pyrazol-3-yl}-2H-indazol-2-yl)-1-phenylethan-1-ol], the results for the negative-log IC50 (pIC50) (on human STING WT (R232); in assay [1] (Homo sapiens)) were 7.69 and 6.07, respectively.
For `Cn1cc([C@@H](O)Cn2cc3c(-c4nc(-c5cc6cn(C)nc6nc5C5CC5)n(C)c4C4CC4)cccc3n2)cn1` [Example 91, (1R)-2-[4-(5-cyclopropyl-2-{6-cyclopropyl-2-methyl-2H-pyrazolo[3,4-b]pyridin-5-yl}-1-methyl-1H-imidazol-4-yl)-2H-indazol-2-yl]-1-(1-methyl-1H-pyrazol-4-yl)ethan-1-ol], the pIC50 was 8.12 at human STING WT (R232) and 5.80 in assay [1] (Homo sapiens).
For `CNc1nc2nn(C)cc2cc1-n1nc(-c2cccc3nn(C[C@H](O)c4ccccc4)cc23)c(C(C)C)c1C` [Example 84, (1R)-2-(4-{5-methyl-1-[2-methyl-6-(methylamino)-2H-pyrazolo[3,4-b]pyridin-5-yl]-4-(propan-2-yl)-1H-pyrazol-3-yl}-2H-indazol-2-yl)-1-phenylethan-1-ol], the figures for the pIC50 (at human STING WT (R232); in assay [1] (Homo sapiens)) were 7.68 and 6.19, respectively.
Regarding `Cc1nc2nn(C)cc2cc1-n1nc(-c2cccc3nn(C[C@H](OCCF)c4ccccc4)cc23)c(C(C)C)c1C` [Example 78, 4-(1-{2,6-dimethyl-2H-pyrazolo[3,4-b]pyridin-5-yl}-5-methyl-4-(propan-2-yl)-1H-pyrazol-3-yl)-2-[(2R)-2-(2-fluoroethoxy)-2-phenylethyl]-2H-indazole], the pIC50 on human STING WT (R232) was 7.78; in assay [1] (Homo sapiens) it was 6.25.
The like results for `Cc1nc2nn(C)cc2cc1-n1nc(-c2cccc3nn(C[C@H](O)c4ccccc4)cc23)c(C2(C)CC2)c1C` [Example 92, (1R)-2-[4-(1-{2,6-Dimethyl-2H-pyrazolo[3,4-b]pyridin-5-yl}-5-methyl-4-(1-methylcyclopropyl)-1H-pyrazol-3-yl)-2H-indazol-2-yl]-1-phenylethan-1-ol] were, in that order, 8.37 and 5.70.
As for `Cc1nc2nn(C)cc2cc1-n1nc(-c2cccc3nn(C[C@H](OCCC(C)(C)O)c4ccccc4)cc23)c(C(C)C)c1C` [Example 74, 4-[(1R)-2-[4-(1-{2,6-dimethyl-2H-pyrazolo[3,4-b]pyridin-5-yl}-5-methyl-4-(propan-2-yl)-1H-pyrazol-3-yl)-2H-indazol-2-yl]-1-phenylethoxy]-2-methylbutan-2-ol], the negative-log IC50 (pIC50) on human STING WT (R232) is 7.77; in assay [1] (Homo sapiens) it was 6.35.
For `Cc1c(C(C)C)c(-c2cccc3nn(C[C@H](O)c4ccccc4)cc23)nn1-c1ccn2c(C(F)F)nnc2c1C1CC1` [Example 76], the figures for the negative logarithm of the IC50 (pIC50) (at human STING WT (R232); in assay [1] (Homo sapiens)) were 7.76 and 6.28, respectively.
Regarding `Cc1c(-n2nc(-c3cccc4nn(C[C@H](O)c5ccccc5)cc34)c(C(C)C)c2C)ccn2c(C)cnc12` [Example 94, (1R)-2-[4-(1-{3,8-dimethylimidazo[1,2-a]pyridin-7-yl}-5-methyl-4-(propan-2-yl)-1H-pyrazol-3-yl)-2H-indazol-2-yl]-1-phenylethan-1-ol], the negative-log IC50 (pIC50) at human STING WT (R232) was 7.77; in assay [1] (Homo sapiens), 5.62.
`C=CCO[C@@H](Cn1cc2c(-c3nn(-c4cc5cn(C)nc5nc4C)c(C)c3C(C)C)cccc2n1)c1ccccc1` [Example 79, 4-(1-{2,6-dimethyl-2H-pyrazolo[3,4-b]pyridin-5-yl}-5-methyl-4-(propan-2-yl)-1H-pyrazol-3-yl)-2-[(2R)-2-phenyl-2-(prop-2-en-1-yloxy)ethyl]-2H-indazole]: the negative-log IC50 (pIC50) was 7.70 on human STING WT (R232) and 6.24 in assay [1] (Homo sapiens).
As for `Cc1nc2nn(C)cc2cc1-n1nc(-c2cccc3nn(CC(O)C4CCCCC4)cc23)c(C(C)C)c1C` (centres unmarked) [Example 83, 1-cyclohexyl-2-[4-(1-{2,6-dimethyl-2H-pyrazolo[3,4-b]pyridin-5-yl}-5-methyl-4-(propan-2-yl)-1H-pyrazol-3-yl)-2H-indazol-2-yl]ethan-1-ol], the pIC50 on human STING WT (R232) is 7.63; in assay [1] (Homo sapiens) it was 6.20.
The like results for `Cc1c(-n2nc(-c3cccc4nn(C[C@H](O)c5ccccc5)cc34)c(C(C)C)c2C)ccn2c(C)nnc12` [Example 86, (1R)-2-[4-(1-{3,8-dimethyl-[1,2,4]triazolo[4,3-a]pyridin-7-yl}-5-methyl-4-(propan-2-yl)-1H-pyrazol-3-yl)-2H-indazol-2-yl]-1-phenylethan-1-ol] were, in that order, 8.16 and 6.16.
